Values of other authors as cited in patent publication US9566245B2, “Osmotic drug delivery system” (Supernus Pharmaceuticals, Inc., priority 2006, dated 2017).

Settings: treprostinil as the free acid

SMILES: CCCCC[C@H](O)CC[C@@H]1[C@H]2Cc3cccc(OCC(=O)O)c3C[C@H]2C[C@H]1O [treprostinil]
- Absolute oral bioavailability: less than 10%
